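Growth conditions: 96-well plates. Treatment: test compound, 48 hours, 5 concentrations. Analysis: linear interpolation between bracketing concentrations; unreached endpoints set to highest concentration. At the GI50, growth is halved.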 Active and inactive are the calls of the source. Cut-off read from the data, not from the text of the source: active = GI50 up to about 1.1 µM and inactive = higher.
Assays:
Experiment in all cases: NCI-60 cell line screen, 48 h
786-0 = test system: 786-0
A498 = test system: A498
A549 = test system: A549
ACHN = test system: ACHN
CAKI-1 = test system: CAKI-1
CCRF-CEM = test system: CCRF-CEM
COLO 205 = test system: COLO 205
DLD-1 = test system: DLD-1
DMS-114 = test system: DMS-114
DMS-273 = test system: DMS-273
EKVX = test system: EKVX
HCC 2998 = test system: HCC 2998
HCT-116 = test system: HCT-116
HCT-15 = test system: HCT-15
HL-60 = test system: HL-60
HOP-18 = test system: HOP-18
HOP-62 = test system: HOP-62
HOP-92 = test system: HOP-92
HT-29 = test system: HT-29
IGROV-1 = test system: IGROV-1
K562 = test system: K562
KM-20L2 = test system: KM-20L2
KM12 = test system: KM12
LOX IMVI = test system: LOX IMVI
LXFL 529 = test system: LXFL 529
M14 = test system: M14
M19-MEL = test system: M19-MEL
MOLT-4 = test system: MOLT-4
Malme-3M = test system: Malme-3M
NCI-H23 = test system: NCI-H23
NCI-H460 = test system: NCI-H460
NCI-H522 = test system: NCI-H522
OVCAR-3 = test system: OVCAR-3
OVCAR-4 = test system: OVCAR-4
OVCAR-5 = test system: OVCAR-5
OVCAR-8 = test system: OVCAR-8
RPMI-8226 = test system: RPMI-8226
RXF 631 = test system: RXF 631
SF-268 = test system: SF-268
SF-295 = test system: SF-295
SF-539 = test system: SF-539
SK-MEL-28 = test system: SK-MEL-28
SK-MEL-2 = test system: SK-MEL-2
SK-MEL-5 = test system: SK-MEL-5
SK-OV-3 = test system: SK-OV-3
SN12C = test system: SN12C
SNB-19 = test system: SNB-19
SNB-75 = test system: SNB-75
SNB-78 = test system: SNB-78
SR = test system: SR
SW-620 = test system: SW-620
TK-10 = test system: TK-10
U-251 = test system: U-251
UACC-257 = test system: UACC-257
UACC-62 = test system: UACC-62
UO-31 = test system: UO-31
XF498 = test system: XF498
RXF 393 = test system: RXF 393

## NC(=O)N/N=C(/Cc1nc2ccc(C(=O)c3ccccc3)cc2nc1O)C(=O)Nc1ccc(C(F)(F)F)cc1[N+](=O)[O-]
786-0
  GI50: > 100 µM (inactive)
A498
  GI50: > 100 µM (inactive)
A549
  GI50: > 100 µM (inactive)
ACHN
  GI50: > 100 µM (inactive)
CAKI-1
  GI50: 42.8 µM (inactive)
CCRF-CEM
  GI50: 36.5 µM (inactive)
COLO 205
  GI50: 25.5 µM (inactive)
DLD-1
  GI50: > 100 µM (inactive)
DMS-114
  GI50: 52.1 µM (inactive)
DMS-273
  GI50: 51.9 µM (inactive)
EKVX
  GI50: 14.2 µM (inactive)
HCC 2998
  GI50: 61.4 µM (inactive)
HCT-116
  GI50: > 100 µM (inactive)
HCT-15
  GI50: 50.7 µM
HL-60
  GI50: 42.1 µM (inactive)
HOP-18
  GI50: 60.3 µM (inactive)
HOP-62
  GI50: > 100 µM (inactive)
HOP-92
  GI50: 45.7 µM (inactive)
HT-29
  GI50: 57.4 µM (inactive)
IGROV-1
  GI50: > 100 µM (inactive)
K562
  GI50: 39.6 µM (inactive)
KM-20L2
  GI50: 98.2 µM (inactive)
KM12
  GI50: 84.5 µM (inactive)
LOX IMVI
  GI50: 79.4 µM (inactive)
LXFL 529
  GI50: 45.5 µM (inactive)
M14
  GI50: 85.9 µM (inactive)
M19-MEL
  GI50: > 100 µM (inactive)
MOLT-4
  GI50: 6.1 µM (inactive)
Malme-3M
  GI50: > 100 µM (inactive)
NCI-H23
  GI50: 84.7 µM (inactive)
NCI-H460
  GI50: 65 µM (inactive)
NCI-H522
  GI50: 22.6 µM (inactive)
OVCAR-3
  GI50: 43.4 µM (inactive)
OVCAR-4
  GI50: > 100 µM (inactive)
OVCAR-5
  GI50: > 100 µM (inactive)
OVCAR-8
  GI50: 77.8 µM (inactive)
RPMI-8226
  GI50: 50.1 µM (inactive)
RXF 631
  GI50: 47 µM (inactive)
SF-268
  GI50: > 100 µM (inactive)
SF-295
  GI50: 74.8 µM (inactive)
SF-539
  GI50: 66.5 µM (inactive)
SK-MEL-28
  GI50: > 100 µM (inactive)
SK-MEL-2
  GI50: > 100 µM (inactive)
SK-MEL-5
  GI50: 56.2 µM (inactive)
SK-OV-3
  GI50: 84.1 µM (inactive)
SN12C
  GI50: > 100 µM (inactive)
SNB-19
  GI50: > 100 µM (inactive)
SNB-75
  GI50: 26 µM (inactive)
SNB-78
  GI50: > 100 µM (inactive)
SR
  GI50: 45.4 µM (inactive)
SW-620
  GI50: 65.2 µM (inactive)
TK-10
  GI50: > 100 µM (inactive)
U-251
  GI50: 75 µM (inactive)
UACC-257
  GI50: > 100 µM (inactive)
UACC-62
  GI50: 38.7 µM (inactive)
UO-31
  GI50: 51.5 µM (inactive)
XF498
  GI50: 38.6 µM (inactive)

## CCCCOC(=O)NC(=O)c1cn(CCCOC(=O)NCCCCCCNC(=O)OCCCn2cc(C(=O)NC(=O)OCCCC)c(=O)[nH]c2=O)c(=O)[nH]c1=O
786-0
  GI50: > 100 µM (inactive)
A498
  GI50: > 100 µM (inactive)
A549
  GI50: > 100 µM (inactive)
ACHN
  GI50: > 100 µM (inactive)
COLO 205
  GI50: > 100 µM (inactive)
DLD-1
  GI50: > 100 µM (inactive)
DMS-114
  GI50: > 100 µM (inactive)
DMS-273
  GI50: > 100 µM (inactive)
EKVX
  GI50: > 100 µM (inactive)
HCC 2998
  GI50: > 100 µM (inactive)
HCT-116
  GI50: > 100 µM (inactive)
HCT-15
  GI50: > 100 µM
HL-60
  GI50: > 100 µM (inactive)
HOP-18
  GI50: > 100 µM (inactive)
HOP-62
  GI50: > 100 µM (inactive)
HOP-92
  GI50: 23.6 µM (inactive)
HT-29
  GI50: > 100 µM (inactive)
IGROV-1
  GI50: > 100 µM (inactive)
K562
  GI50: > 100 µM (inactive)
KM-20L2
  GI50: > 100 µM (inactive)
KM12
  GI50: > 100 µM (inactive)
LOX IMVI
  GI50: > 100 µM (inactive)
LXFL 529
  GI50: 90.4 µM (inactive)
M14
  GI50: > 100 µM (inactive)
M19-MEL
  GI50: > 100 µM (inactive)
Malme-3M
  GI50: > 100 µM (inactive)
NCI-H23
  GI50: 44.6 µM (inactive)
NCI-H460
  GI50: > 100 µM (inactive)
NCI-H522
  GI50: > 100 µM (inactive)
OVCAR-3
  GI50: > 100 µM (inactive)
OVCAR-4
  GI50: > 100 µM (inactive)
OVCAR-5
  GI50: > 100 µM (inactive)
OVCAR-8
  GI50: > 100 µM (inactive)
RPMI-8226
  GI50: > 100 µM (inactive)
RXF 393
  GI50: > 100 µM (inactive)
RXF 631
  GI50: > 100 µM (inactive)
SF-268
  GI50: > 100 µM (inactive)
SF-295
  GI50: > 100 µM (inactive)
SF-539
  GI50: > 100 µM (inactive)
SK-MEL-28
  GI50: > 100 µM (inactive)
SK-MEL-2
  GI50: > 100 µM (inactive)
SK-MEL-5
  GI50: > 100 µM (inactive)
SK-OV-3
  GI50: > 100 µM (inactive)
SN12C
  GI50: > 100 µM (inactive)
SNB-19
  GI50: 48.4 µM (inactive)
SNB-75
  GI50: > 100 µM (inactive)
SNB-78
  GI50: > 100 µM (inactive)
SR
  GI50: > 100 µM (inactive)
SW-620
  GI50: > 100 µM (inactive)
TK-10
  GI50: 41.8 µM (inactive)
U-251
  GI50: > 100 µM (inactive)
UACC-257
  GI50: > 100 µM (inactive)
UACC-62
  GI50: > 100 µM (inactive)
UO-31
  GI50: > 100 µM (inactive)
XF498
  GI50: 18.7 µM (inactive)

Source: ChEMBL document CHEMBL1201862, “PubChem BioAssay data set” (2004)
